Data taken from patent US20240226026A1, “BRANCHED TAIL LIPID COMPOUNDS AND COMPOSITIONS FOR INTRACELLULAR DELIVERY OF THERAPEUTIC AGENTS” (ModernaTX, Inc., priority 2021, published 2024).

What was measured:
[1] = Particle size (diameter) and polydispersity index of lipid nanoparticles; format: physicochemical; conditions: nanoparticles comprising the lipid
Experimental: A Zetasizer Nano ZS (Malvern Instruments Ltd, Malvern, Worcestershire, UK) can be used to determine the particle size, the polydispersity index (PDI) and the zeta potential of the nanoparticle compositions in 1×PBS in determining particle size and 15 mM PBS in determining zeta potential.
Lipid nanoparticles (e.g., empty LNPs or loaded LNPs) may be characterized by a variety of methods. For example, microscopy (e.g., transmission electron microscopy or scanning electron microscopy) may be used to examine the morphology and size distribution of a nanoparticle composition. Dynamic light scattering or potentiometry (e.g., potentiometric titrations) may be used to measure zeta potentials. Dynamic light scattering may also be utilized to determine particle sizes. Instruments such as the Zetasizer Nano ZS (Malvern Instruments Ltd, Malvern, Worcestershire, UK) may also be used to measure multiple characteristics of a nanoparticle composition, such as particle size, polydispersity index, and zeta potential.
(§1) Lipid nanoparticles (e.g., empty LNPs or loaded LNPs) including DSPC as a phospholipid, cholesterol as a structural lipid, PL-II (e.g., PEG-1) as a PEG lipid, and a lipid according to Formula (I-1), (I), (I-A), (I-A1), (I-A2), (I-A3), or (I-A4) were prepared. In some embodiments, the lipid nanoparticles further included rhodamine-DOPE as a fluorescent lipid. Tables 2a, 2b, and 3 summarize the characteristics of the formulations.

[2] = Encapsulation efficiency (% EE) of lipid nanoparticles; format: physicochemical; conditions: nanoparticles comprising the lipid
Experimental: For nanoparticle compositions including an RNA, a QUANT-IT™ RIBOGREEN® RNA assay (Invitrogen Corporation Carlsbad, CA) can be used to evaluate the encapsulation of an RNA by the nanoparticle composition. The samples are diluted to a concentration of approximately 5 μg/mL in a TE buffer solution (10 mM Tris-HCl, 1 mM EDTA, pH 7.5). 50 μL of the diluted samples are transferred to a polystyrene 96 well plate and either 50 μL of TE buffer or 50 μL of a 2% Triton X-100 solution is added to the wells. The plate is incubated at a temperature of 37° C. for 15 minutes. The RIBOGREEN® reagent is diluted 1:100 in TE buffer, and 100 μL of this solution is added to each well. The fluorescence intensity can be measured using a fluorescence plate reader (Wallac Victor 1420 Multilablel Counter; Perkin Elmer, Waltham, MA) at an excitation wavelength of, for example, about 480 nm and an emission wavelength of, for example, about 520 nm. The fluorescence values of the reagent blank are subtracted from that of each of the samples and the percentage of free RNA is determined by dividing the fluorescence intensity of the intact sample (without addition of Triton X-100) by the fluorescence value of the disrupted sample (caused by the addition of Triton X-100).
The efficiency of encapsulation of a therapeutic and/or prophylactic describes the amount of therapeutic and/or prophylactic that is encapsulated or otherwise associated with a lipid nanoparticle (e.g., an empty LNP or a loaded LNP) after preparation, relative to the initial amount provided. The encapsulation efficiency is desired to be high (e.g., close to 100%). The encapsulation efficiency may be measured, for example, by comparing the amount of therapeutic and/or prophylactic in a solution containing a loaded LNP before and after breaking up the loaded LNP with one or more organic solvents or detergents. Fluorescence may be used to measure the amount of free therapeutic and/or prophylactic (e.g., RNA) in a solution. For the loaded LNPs formulated with lipids of the disclosure, the encapsulation efficiency of a therapeutic and/or prophylactic is at least 50%, for example 50%, 55%, 60%, 65%, 70%, 75%, 80%, 85%, 90%, 91%, 92%, 93%, 94%, 95%, 96%, 97%, 98%, 99%, or 100%. In some embodiments, the encapsulation efficiency is at least 80%. In some embodiments, the encapsulation efficiency is at least 90%. In some embodiments, the encapsulation efficiency of the therapeutic and/or prophylactic agent is between 80% and 100%.
as §1

[3] = Lipid nanoparticle surface hydrophobicity by Generalized Polarization by Laurdan (N-GP); format: physicochemical; conditions: for LNP surface hydrophobicity (N-GP*): Table 2b, nanoparticles comprising the lipid; for Lipid nanoparticle surface hydrophobicity (N-GP*): Table 2a, Laurdan, higher N-GP indicates a less polar surface
Text: Surface hydrophobicity of nanoparticles of the disclosure can be measured by Generalized Polarization by Laurdan (GPL). In this method, Laurdan, a fluorescent aminonaphthalene ketone lipid, is post-inserted into the nanoparticle surface and the fluorescence spectrum of Laurdan is collected to determine the normalized Generalized Polarization (N-GP). In some embodiments, nanoparticles formulated with lipids of the disclosure have a surface hydrophobicity expressed as N-GP of between about 0.5 and about 1.5. For example, in some embodiments, nanoparticles formulated with lipids of the disclosure have a surface hydrophobicity expressed as N-GP of about 0.5, about 0.6, about 0.7, about 0.8, about 0.9, about 1.0, about 1.1, about 1.2, about 1.3, about 1.4, or about 1.5. In some embodiments, nanoparticles formulated with lipids of the disclosure have a surface hydrophobicity expressed as N-GP of about 1.0 or about 1.1.

[4] = Apparent pKa of lipid nanoparticles; format: physicochemical; conditions: for Apparent pKa 95% CI: Table 2b, 95% confidence interval; for Apparent pKa: Table 2a, nanoparticles comprising the lipid
CD-1 mice = assay: Expression of hEPO induced by LNPs (mRNA encoding hEPO) administered to mice; format: in vivo; conditions: Table 4a, serum, 6 h after intravenous injection; for Avg. hEPO Concentration (mIU/mL)* ± Avg. SD: ELLA Simple Plex Assay
Experimental: In some embodiments, hEPO concentrations were determined using an […] (ELLA) Simple Plex Assay (ProteinSimple) with a Human Erythroprotein cartridge. Standards for this assay are calibrated according to the 2. IRP WHO preparation. Nanoparticle compositions including mRNA are useful in the evaluation of the efficacy and usefulness of various formulations for the delivery of therapeutic and/or prophylactics. Higher levels of protein expression induced by administration of a composition including an mRNA will be indicative of higher mRNA translation and/or nanoparticle composition mRNA delivery efficiencies. As the non-RNA components are not thought to affect translational machineries themselves, a higher level of protein expression is likely indicative of a higher efficiency of delivery of the therapeutic and/or prophylactic by a given nanoparticle composition relative to other nanoparticle compositions or the absence thereof.
To assess potency of expression of lipids of the disclosure, the protein expression (hEPO) following administration of a nanoparticle comprising a lipid of the disclosure (e.g., a loaded LNP) to mice was measured.
Lipid nanoparticles (LNPs) including DSPC as a phospholipid, cholesterol as a structural lipid, PL-II (e.g., PEG-1) as a PEG lipid, a lipid according to Formula (I-1), (I), (I-A), (I-A1), (I-A2), (I-A3), or (I-A4), and an mRNA encoding hEPO were intravenously administered to CD-1 mice. The concentration of hEPO in serum was tested at 6 h after injection.

[5] = Table 2a, DSPC, cholesterol, PEG lipid

Compound	Diameter (nm) ([1]; Table 2b)	PDI ([1]; Table 2b)	Diameter (nm) ([1]; Table 3)	PDI ([1]; Table 3)	% EE ([2]; Table 2b) [%]	% EE ([2]; Table 3) [%]	LNP surface hydrophobicity (N-GP*) [3]	Apparent pKa 95% CI [4]	Avg. hEPO Concentration (mIU/mL)* ± Avg. SD (CD-1 mice) [mIU/mL]	PDI ([1]; Table 2a)	Diameter (nm) [1, 5] [nm]	% EE ([2]; Table 2a) [%]	Lipid nanoparticle surface hydrophobicity (N-GP*) [3]	Apparent pKa [4]	Avg. hEPO Concentration (mIU/mL) ± Avg. SD (CD-1 mice) [mIU/mL]
CCCCCCCC(CCCCCCC)OC(=O)CCCCCCCN(CCCCCCCC(=O)OCCC(CCCC)CCCC)CCCNc1noc(N)n1 [Compound 16]	70.9	0.118	56.8	0.113	98.2	97.7	1.19	6.344 to 6.479	6.19E+05 ± 1.05E+04	–	–	–	–	–	–
CCCCCCCC(CCCCCCC)OC(=O)CCCCCCCN(CCCCCCCC(=O)OCCC(CCCC)CCCC)CCCNS(=O)(=O)CCOC [Compound 17]	–	–	90	0.129	–	93.5	–	–	–	0.128	89.7	77.1	1.02	6.689	1.00E+07 ± 2.34E+05
CCCCCCCC(CCCCCCC)OC(=O)CCCCCCCN(CCCCCCCC(=O)OCCC(CCCC)CCCC)CCCNC(=O)C1(C)CC1 [Compound 18]	144.2	0.207	95.9	0.174	18.6	23.9	1.05	6.744 to 6.808	5.45E+06 ± 1.26E+05	–	–	–	–	–	–
CCCCCCCC(CCCCCCC)OC(=O)CCCCCCCN(CCCCCCCC(=O)OCCC(CCCC)CCCC)CCCNS(=O)(=O)CC [Compound 19]	86.4	0.187	84.5	0.129	77.0	94.5	1.00	6.572 to 6.671	–	0.127	82.8	77.2	1.00	6.551	1.36E+07 ± 2.52E+05
CCCCCCCC(CCCCCCC)OC(=O)CCCCCCCN(CCCCCCCC(=O)OCCC(CCCC)CCCC)CCCNS(=O)(=O)Cc1ccon1 [Compound 20]	76.7	0.132	66	0.106	84.0	87.5	1.00	6.441 to 6.526	5.30E+06 ± 1.59E+05	–	–	–	–	–	–
CCCCCCCC(CCCCCCC)OC(=O)CCCCCCCN(CCCCCCCC(=O)OCCC(CCCC)CCCC)CCCNc1ncccc1N [Compound 21]	98.9	0.305	92.8	0.255	97.9	98.4	1.18	6.685 to 6.778	8.77E+05 ± 1.73E+04	–	–	–	–	–	–
